Data on two compounds can be found in patent publication US4180677A, “Novel prostaglandins” (American Cyanamid Company, priority 1977, dated 1979).

The subject of assay [1] is bronchospasms elicited by 5-hydroxytryptamine. Nature of the assay: Bronchodilator activity (Konzett assay), spasmogen 5-hydroxytryptamine. Format: in vivo, guinea pig. As to conditions: Cavia porcellus; guinea pigs, spasmogen 5-hydroxytryptamine i.v.; three logarithmic cumulative intravenous doses. How it is done: (§1) Bronchodilator activity was determined in guinea pigs against bronchospasms elicited by intravenous injections of 5-hydroxytryptamine, histamine or acetylcholine by the Konzett procedure. [See J. Lulling, P. Lievens, F. El Sayed and J. Prignot, Arzneimittel-Forschung, 18, 995 (1968).]
(§2) In the Table which follows bronchodilator activity for representative compounds of this invention against one or more of three spasmogenic agents is expressed as an ED50 determined from the results obtained with three logarithemic cumulative intravenous doses.

In assay [2] the test system is bronchospasms elicited by histamine. Nature of the assay: Bronchodilator activity (Konzett assay), spasmogen histamine. The assay is classed as in vivo, guinea pig. As to conditions: Cavia porcellus; guinea pigs, spasmogen histamine i.v.; three logarithmic cumulative intravenous doses. As for the experimental part: as §1, §2
Assay [3] deals with ulcerogenic properties of indomethacin. Nature of the assay: Protection against indomethacin-induced ulcers (oral gavage). Format: in vivo, rat. As to conditions: rats, indomethacin 20 mg./kg. s.c., score 0 normal to 4 many ulcers. How it is done: The compounds of this invention provide protection against the ulcerogenic properties of indomethacin. This assay was carried out in the following manner.
Rats were starved for 48 hours (water was given ad libitum). Indomethacin (20 mg./kg. of body weight) was administered by the subcutaneous route and one-half the dose of the test compound was administered by gavage at the same time. After three hours, the second half of the test compound was administered also be gavage. Five hours after the administration of indomethacin the animals were decapitated and the stomachs removed. The stomachs were washed with distilled water, blotted on gauze, cut along the larger curvature, and the contents rinsed with distilled water. The stomachs were spread out, pinned on a cork and visualized under magnifying glass for ulcers. The criteria for scoring of ulcers was as previously reported. [Abdel-Galil et al. Brit. J. Pharmac. Chemotherapy 33:1-14 (1968)].
1-Petechial hemorrhage or pin point ulder
3 Many ulcers, a few large
4-Many ulcers, mainly large
Control animals treated with indomethacin but not test compound consistenly give scores of about 3.0. Control animals treated with neither indomethacin nor test compound gives scores of about 0.5-0.8. Compounds producing a lowering of the control score by 0.5 or more are considered to be active.

Assay [4] has as its system bronchospasms elicited by acetylcholine. Nature of the assay: Bronchodilator activity (Konzett assay), spasmogen acetylcholine. The assay is classed as in vivo, guinea pig. As to conditions: Cavia porcellus; guinea pigs, spasmogen acetylcholine i.v.; three logarithmic cumulative intravenous doses. How it is done: as §1, §2

Molecules are shown by their SMILES.

Broadly, the ED50 is the dose at which the effect has come halfway, by size or by number of responders. Lower therefore signals greater potency. For `O=C(O)CCCCCC[C@H]1C(=O)CC[C@@H]1/C=C/[C@H](O)CC1CCCC1` (relative stereo) [9-oxo-15-epi-hydroxy-17,20-methano-13-trans-prostenoic acid], the figures for the ED50 in assay [1], in assay [2] and in assay [4] were 3.2 mg/kg, 0.206 mg/kg and 3.2 mg/kg, respectively. For the same compound, the “Score, treated (ulcer score)” value in assay [3] (total oral dose 25.0 mg./kg. of body weight, control score 3.0) turned out to be 1.7.

For `O=C(O)CCCCCC[C@H]1C(=O)CC[C@@H]1/C=C/[C@@H](O)CC1CCCC1` (relative stereo) [9-oxo-15-hydroxy-17,20-methano-13-trans-prostenoic acid], the ED50 was 0.0063 mg/kg in assay [1], 0.0014 mg/kg in assay [2] and 3.2 mg/kg in assay [4]. Also, the “Score, treated (ulcer score)” value in assay [3] (total oral dose 12.5 mg./kg. of body weight, control score 2.8) amounted to 1.8.
